Source: PMC6100073, “Activation of Anthracene Endoperoxides in Leishmania and Impairment of Mitochondrial Functions” (Molecules : A Journal of Synthetic Chemistry and Natural …, 2018)
Read-outs that look alike come from different tables or passages of the source.

Key:
[1] = tested on: Leishmania donovani promastigotes (LdP); test: MTS-PMS viability assay in Leishmania donovani promastigotes; type: cell-based; conditions: endpoint at 48 h, 5 × 10^5 LdP/mL, read-out: IC50 (µM) Mean ± SD LdP
Protocol: Leishmania donovani (PS14) were originated from the splenic aspirate of a patient with visceral leishmaniasis. Typing of the species was done by a restriction fragment length polymorphism (RFLP) method. The parasites were cultivated in M199 medium supplemented with 20% FBS, penicillin G (50,000 IU/L), streptomycin (50 mg/L), and hemin (5 µM) at 24 °C for transformation. After 1–2 weeks, the successfully transformed parasites (Leishmania donovani promastigotes, LdP) were transferred to M199 medium supplemented with 10% FBS, penicillin G (50,000 IU/L), streptomycin (50 mg/L), and hemin (5 µM) in 12.5 cm^2 flasks (HiMedia, Mumbai, India) at 24 °C. The cells were sub-cultured every 48–72 h, 1 × 10^6 cells/mL being the inoculum.
The antileishmanial activity of anthracene endoperoxides (AcEPs) in LdP was established in promastigotes, and cell viability was measured using the modified MTS-PMS assay. Briefly, log phase promastigotes (1 × 10^5 cells/200 µL of Schneider‘s medium/well) were incubated with AcEPs (0–100 µM) for 48 h, and afterwards, parasite viability was measured. For this, MTS (2.0 mg/mL) and PMS (0.92 mg/mL) were added in a ratio of 5:1 (20 µL/well), and plates were incubated for 3 h at 37 °C; resultant absorbance was measured at 490 nm in a spectrofluorimeter (Merilyzer EIaQuant, Meril Life Sciences, Gujarat, India). The mean percent viability was calculated as follows: mean specific absorbance of treated parasites/mean specific absorbance of untreated parasites × 100. Results were expressed as IC50 values. These were enumerated by graphical extrapolation using Graph pad Prism software (version 5).

LtP [2] = test: EPR (CMH oxidation): superoxide formation in LtP; type: cell-based, Leishmania tarentolae; conditions: 20 µM AA or 100 µM other compounds, 500 × 10^6 LtP/mL, 400 µM CMH, DFO, DTPA, 5 min, 25 °C
Protocol: To measure superoxide radical (O2^•−) formation induced by AcEPs in LtP, EPR spectroscopy was used. An aliquot of the cell broth was transferred into an Eppendorf tube that was centrifuged (Hettich Universal 16, 20 °C, 2000× g, 10 min). The supernatant was discarded, the cell pellet was resuspended in PBS and centrifuged again. After removal of the supernatant, the cell pellet was resuspended in a mixture of PBS, 15 mM glucose (PBS/Glu), DFO (100 µM), and DTPA (25 µM). […] The cell suspension was aliquoted. CMH was added as detection agent leading to a final concentration of 400 µM. After 5 min of incubation at 25 °C, the respective substance was added resulting in final concentrations of 20 µM antimycin A (AA) or 100 µM of AcEP1117, AcEP1118, AcEP1129, AcEP1130, Ac, and AQ. Samples containing LtP and CMH were used as negative control. Samples containing PBS/Glu and CMH were used as negative control as well. After 5 min of incubation at 25 °C with the respective substance, aliquots of 17 µL of the cell suspensions were aspirated into a PTFE tube (outer diameter 0.7 mm). The tube was transferred into the MD5 resonator of the EPR spectrometer. Immediately, the measurement was started using the following parameters: microwave frequency 9.684 GHz; microwave power 20 mW, modulation frequency 100 kHz; modulation amplitude 1 G; time constant 0.82 s; center field 3449 G; scan rate 14 G/min; sweep width 100 G; scan time 419 s; attenuation 2.52 × 10^4; and scans 5.

LtP [3] = test: O2 consumption of LtP (OxoPlates); type: cell-based, Leishmania tarentolae; conditions: 140 × 10^6 LtP/mL, 40 min; for influence on LtP respiration (oxygen consumption rate): 6.25–200 µM
Protocol: Oxygen consumption rates of LtP treated with AcEPs were measured using round-bottomed OxoPlates (OP96U, Precision Sensing GmbH, Regensburg, Germany). An aliquot of BHI culture medium was transferred to an open Erlenmeyer flask and was stirred on a magnetic stirrer for 30 min at 25 °C to saturate it with air (aBHI). Another aliquot of BHI culture medium was mixed with approximately 50 mg of the reducing agent sodium dithionite in a tightly closed falcon tube to remove the dissolved oxygen (dBHI). Aliquots of 200 µL of both calibration media were distributed to 6 wells each of the first row of an OxoPlate. To prevent oxygen exchange with the environment, 70 µL of paraffin oil were layered on top of each well containing liquid. The plate was then incubated in the dark for 15 min at 25 °C for equilibration. Then the fluorescence of both calibration media was measured at a microplate reader (Perkin Elmer Enspire, Germany) in a dual kinetic mode using an excitation wavelength of 540 nm for both of the dyes, emission wavelengths of 650 nm for the indicator dye, and 590 nm for the reference dye. The ratio of both intensities (IR) was calculated for each well and averaged giving the two calibration constants k0 or k100. From the second row on, each well was filled with 50 µL of aBHI. The third row was provided with extra 50 µL of aBHI. The respective amounts of the anthracene derivatives (Ac, AQ, AcEP1117, AcEP1118, AcEP1129, AcEP1130) were added and mixed properly. A serial dilution was performed by transferring 50 µL of the mixture in five subsequent 1:2 steps. LtP (140 × 10^6 cells/mL) were suspended in aBHI and aliquots of 150 µL were transferred to each well giving a maximal final concentration of the AcEPs of 200 µM, declining with onward 1:2 dilution steps. On top of each well, 70 µL of paraffin oil was added. The fluorescence intensity of each well was determined in 5 min intervals over 40 min. Each concentration was measured in quadruplicates. The oxygen concentration was calculated using the following equation (PreSens–Precision Sensing GmbH):O2 [µM] = 100 × (k0/IR − 1) / (k0/k100 − 1) × 2.83
The slope of the change of the oxygen concentrations over time was calculated giving the oxygen consumption rate [µM/min] for each well. The value obtained for aBHI was subtracted to eliminate the influence of the medium. The rate was finally normalized to the oxygen consumption rate of the wells that did contain cells but no test compounds.

LtP [4] = test: Uncoupling of LtP respiration in presence of oligomycin (OxoPlates); type: cell-based, Leishmania tarentolae; conditions: 38 µM Oligo; for uncoupling effect (recovery of O2 consumption in the presence of Oligo): 0.31–5.0 µM CCCP or 12.5–200.0 µM other compounds
Protocol: The uncoupling experiments using OxoPlates were carried out in analogy to oxygen consumption measurements of LtP. An oligomycin (Oligo) premix in aBHI was prepared leading to a final concentration of 38 µM oligomycin (Oligo). Each well of the second row was filled with 50 µL of aBHI. From the third row on, each well was filled with 50 µL of the Oligo premix and to the fourth row additional 50 µL Oligo premix was added. The respective amounts of the substances (Ac, AQ, AcEP1117, AcEP1118, AcEP1129, AcEP1130, CCCP) were added and a serial 1:2 dilution was performed. Measurements were carried out as described above. The oxygen consumption rates were normalized to the wells that contained only LtP. For each concentration measurements were done in triplicates.

**Q.** For `CC12OOC(c3ccccc31)c1ccccc12` [AcEP1129, 9-methyl-9,10-dihydro-9,10-epidioxidoanthracene], which IC50 ([1]; Leishmania donovani, 48 h) is on record?
**A.** The IC50 was 4.21 ± 0.36 µM.

**Q.** What about the “CMH oxidation (superoxide radical formation) in LtP” value (shortened to “CMH oxidation”) (LtP [2]) of the same molecule?
**A.** Its value is “an increased CMH oxidation rate occurred”.

**Q.** What about the “influence on LtP respiration (oxygen consumption rate)” value (from here on “influence on LtP respiration”) (LtP [3]) of the same molecule?
**A.** The value was “significant decline in the oxygen consumption rate at higher concentrations”.

**Q.** And the “concentration from which oxygen consumption is significantly decreased” value (LtP [3]; p < 0.05 vs 0 µM)?
**A.** The value was 25 µM.

**Q.** What about the “concentration at which regain of oxygen consumption (uncoupling) is visible” value (LtP [4]; declines at higher concentrations) of the same molecule?
**A.** Its value is 25 µM.

**Q.** What about the “uncoupling effect (recovery of O2 consumption in the presence of Oligo)” value (“uncoupling effect” below) (LtP [4]) of the same molecule?
**A.** The value was “a trend for uncoupling was observed at lower concentrations”.

**Q.** How did the IC50 ([1]; Leishmania donovani, 48 h) turn out when `CCc1ccc2c(c1)C1OOC2c2ccccc21` (stereo not drawn) [AcEP1130, 2-ethyl-9,10-dihydro-9,10-epidioxidoanthracene] was run?
**A.** The IC50 was 39.5 ± 3.48 µM.

**Q.** And the “CMH oxidation” value (LtP [2])?
**A.** The value was “an increased CMH oxidation rate occurred”.

**Q.** What about the “influence on LtP respiration” value (LtP [3]) of the same molecule?
**A.** Its value is “significant decline in the oxygen consumption rate at higher concentrations”.

**Q.** For `O=C1c2ccccc2C(=O)c2ccccc21` [AQ, anthraquinone, reference compound], which “CMH oxidation” value (LtP [2]) is on record?
**A.** The value was “did not trigger additional CMH oxidation in LtP”.

**Q.** What about the “influence on LtP respiration” value (LtP [3]) of the same molecule?
**A.** The value was “no considerable influence on the LtP respiration up to concentrations of 200 µM”.

**Q.** What about the “uncoupling effect” value (LtP [4]) of the same molecule?
**A.** The value was “Neither Ac nor AQ displayed an uncoupling effect”.

**Q.** With `CC12OOC(C)(c3ccccc31)c1ccccc12` [AcEP1118, 9,10-dimethyl-9,10-dihydro-9,10-epidioxidoanthracene] as the molecule, how does the IC50 ([1]; Leishmania donovani, 48 h) read?
**A.** The IC50 was 4.1 ± 0.94 µM.

**Q.** And the “CMH oxidation” value (LtP [2])?
**A.** Its value is “failed to cause any enhanced oxidation of CMH”.

**Q.** And the “influence on LtP respiration” value (LtP [3])?
**A.** The value was “no considerable influence on the LtP respiration up to concentrations of 200 µM”.

**Q.** `c1ccc2cc3ccccc3cc2c1` [Ac, anthracene] was tested. Which “CMH oxidation” value (LtP [2]) did it give?
**A.** The value was “did not trigger additional CMH oxidation in LtP”.

**Q.** And the “influence on LtP respiration” value (LtP [3])?
**A.** The value was “no considerable influence on the LtP respiration up to concentrations of 200 µM”.

**Q.** And the “uncoupling effect” value (LtP [4])?
**A.** Its value is “Neither Ac nor AQ displayed an uncoupling effect”.

**Q.** Which results are given for `N=C(N)c1ccc(OCCCCCOc2ccc(C(=N)N)cc2)cc1` [Pen, pentamidine, reference compound]?
**A.** IC50 ([1]; Leishmania donovani, 48 h): < 1 µM; IC50 [1]: 0.55 ± 0.11 µM

**Q.** For `c1ccc2c(c1)C1OOC2c2ccccc21` [AcEP1117, 9,10-dihydro-9,10-epidioxidoanthracene], which IC50 ([1]; Leishmania donovani, 48 h) is on record?
**A.** Its IC50 is 2.65 ± 0.34 µM.

**Q.** And the “CMH oxidation” value (LtP [2])?
**A.** The value was “failed to cause any enhanced oxidation of CMH”.

**Q.** And the “influence on LtP respiration” value (LtP [3])?
**A.** The value was “no considerable influence on the LtP respiration up to concentrations of 200 µM”.

**Q.** And the “uncoupling effect” value (LtP [4])?
**A.** Its value is “no strong uncoupling was observed except for AcEP1117 at 200 µM”.
